Reference: patent US20070280915A1, “Combination Therapies Employing A Composition Comprising A Hmg Coa Reductase Inhibitor And A Vitamin B6 Related Compound” (priority 2003, published 2007)
Where two headings read alike, the source gives them in different places.

Experiments:
CYP2D6 = CYP2D6 (Homo sapiens, UniProt P10635); assay: CYP2D6 inhibition assay (substrate AMMC); conditions: 0.0169 to […] tested, na = concentration-dependent inhibition not observed
Text: (§1) The CYP inhibition assays used microsomes (Supersomes®, Gentest Corp., Woburn, Mass.) prepared from insect cells, each expressing an individual CYP subtype (CYP1A2, CYP2A6, CYP2B6, CYP2C8, CYP2C9, CYP2C19, CYP2D6, CYP2E1 or CYP3A4) expressed from the corresponding human CYP cDNA using a baculovirus expression vector. The microsomes also incorporated supplemental cDNA-expressed human reductase and/or cytochrome b5, as these enzymes stimulate the activity of the CYPs, allowing for a reduction in the amount of enzyme required per reaction (Gentest Corp.). The assays monitored, via fluorescence detection, the formation of a fluorescent metabolite following incubation of the microsomes with a specific CYP substrate. […]
(§2) Eight inhibitor and test compound concentrations were tested using 3-fold serial dilutions. […] The amount of metabolic product formed was quantified by fluorescence detection in a fluorescence plate reader utilizing excitation and emission filters that had been optimized for the detection of each metabolite.
(§3) Data Analysis—The mean of the duplicate fluorescent signals in the presence and absence (vehicle control) of each compound was calculated and corrected for the background noise. […]

CYP2E1 = molecular target: T1, CYP2E1 (Homo sapiens, UniProt P05181); assay: CYP2E1 inhibition assay (substrate MFC); type: in vitro ADME; conditions: 0.0169 to […] tested, na = concentration-dependent inhibition not observed
T1 construct: purchased Gentest Corp; host or cells: insect cells (baculovirus)
T1 sequence (P05181 whole entry): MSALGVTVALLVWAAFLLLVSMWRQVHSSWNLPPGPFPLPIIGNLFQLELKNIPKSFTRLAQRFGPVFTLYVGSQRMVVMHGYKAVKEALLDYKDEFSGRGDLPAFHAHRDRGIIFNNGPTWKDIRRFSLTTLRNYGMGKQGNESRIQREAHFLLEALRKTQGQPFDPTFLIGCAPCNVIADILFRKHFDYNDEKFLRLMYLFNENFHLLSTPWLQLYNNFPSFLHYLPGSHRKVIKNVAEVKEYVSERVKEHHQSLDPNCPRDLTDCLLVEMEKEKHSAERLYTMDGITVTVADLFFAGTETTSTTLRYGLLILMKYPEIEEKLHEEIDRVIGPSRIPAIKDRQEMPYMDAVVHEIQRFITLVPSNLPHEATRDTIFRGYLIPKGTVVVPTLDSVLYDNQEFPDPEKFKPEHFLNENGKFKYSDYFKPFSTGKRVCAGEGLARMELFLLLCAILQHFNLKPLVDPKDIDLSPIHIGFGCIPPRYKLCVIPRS
Protocol: All determinations were performed in duplicate.

CYP2C8 = molecular target: T2, CYP2C8 (Homo sapiens, UniProt P10632); assay: CYP2C8 inhibition assay (substrate DBF); conditions: 0.0169 to […] tested, na = concentration-dependent inhibition not observed
T2 sequence (P10632 1-490): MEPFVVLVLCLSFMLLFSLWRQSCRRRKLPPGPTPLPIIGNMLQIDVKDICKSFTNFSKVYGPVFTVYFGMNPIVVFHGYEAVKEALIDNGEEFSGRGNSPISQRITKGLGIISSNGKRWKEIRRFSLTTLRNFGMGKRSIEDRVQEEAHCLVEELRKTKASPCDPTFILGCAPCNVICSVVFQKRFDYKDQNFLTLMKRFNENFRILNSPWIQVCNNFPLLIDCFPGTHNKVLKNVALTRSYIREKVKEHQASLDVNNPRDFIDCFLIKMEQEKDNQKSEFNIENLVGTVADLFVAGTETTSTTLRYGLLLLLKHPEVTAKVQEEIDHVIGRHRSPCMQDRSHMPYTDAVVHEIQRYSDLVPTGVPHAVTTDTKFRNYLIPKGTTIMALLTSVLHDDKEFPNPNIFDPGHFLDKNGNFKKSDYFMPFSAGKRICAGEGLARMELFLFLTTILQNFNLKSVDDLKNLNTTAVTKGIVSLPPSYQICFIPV
Text: as §1, §2, §3

CYP2B6 = molecular target: T3, CYP2B6 (Homo sapiens, UniProt P20813); assay: CYP2B6 inhibition assay (substrate EFC); conditions: 0.0169 to […] tested, na = concentration-dependent inhibition not observed
T3 sequence (P20813 1-491): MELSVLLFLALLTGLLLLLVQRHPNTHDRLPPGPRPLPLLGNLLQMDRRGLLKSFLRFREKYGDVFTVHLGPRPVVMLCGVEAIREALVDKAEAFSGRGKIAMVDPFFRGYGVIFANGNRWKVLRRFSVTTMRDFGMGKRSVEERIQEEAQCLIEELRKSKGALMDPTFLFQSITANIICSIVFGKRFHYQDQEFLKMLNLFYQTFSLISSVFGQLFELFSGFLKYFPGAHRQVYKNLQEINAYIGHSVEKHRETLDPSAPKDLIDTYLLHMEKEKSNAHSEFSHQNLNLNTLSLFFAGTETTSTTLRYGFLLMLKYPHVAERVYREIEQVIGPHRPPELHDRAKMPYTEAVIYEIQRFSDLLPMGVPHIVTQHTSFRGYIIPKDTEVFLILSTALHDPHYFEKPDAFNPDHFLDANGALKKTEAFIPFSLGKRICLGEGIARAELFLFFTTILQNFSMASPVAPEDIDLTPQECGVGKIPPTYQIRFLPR
Text: The CYP inhibition assays used microsomes (Supersomes®, Gentest Corp., Woburn, Mass.) prepared from insect cells, each expressing an individual CYP subtype (CYP1A2, CYP2A6, CYP2B6, CYP2C8, CYP2C9, CYP2C19, CYP2D6, CYP2E1 or CYP3A4) expressed from the corresponding human CYP cDNA using a baculovirus expression vector. The microsomes also incorporated supplemental cDNA-expressed human reductase and/or cytochrome b5, as these enzymes stimulate the activity of the CYPs, allowing for a reduction in the amount of enzyme required per reaction (Gentest Corp.). The assays monitored, via fluorescence detection, the formation of a fluorescent metabolite following incubation of the microsomes with a specific CYP substrate. […] Reactions (0.2 mL) were performed in 96-well microtitre plates at 37° C. in the presence of an NADPH regenerating system [NADP+, glucose-6-phosphate (G6P), glucose-6-phosphate dehydrogenase (G6PDH)] and MgCl2. […] All determinations were performed in duplicate. The reagent solutions used for all of the CYP subtype assays, except CYP2C19 and CYP3A4, were prepared by MBDI. For CYP2C19 and CYP3A4, complete reagent kits purchased from Gentest Corp. (CYP2C19/CEC: Cat. No. HTS-4000, Lot No. 1; CYP3A4/BFC: Cat. No. HTS-1000, Lot No. 1) were used to perform the assays.
as §2, with “dilutions. The microtitre plates containing 0.1 mL/well of the latter mixture were pre-warmed to 37° C. in an incubator.” for “dilutions.”
Data Analysis—The mean of the duplicate fluorescent signals in the presence and absence (vehicle control) of each compound was calculated and corrected for the background noise. Percent inhibition was calculated as the difference in the corrected fluorescent signals in the absence and presence of the compound, divided by the corrected fluorescent signal in the absence of compound, multiplied by 100%.

CYP3A4 = CYP3A4 (Homo sapiens, UniProt P08684); assay: CYP3A4 inhibition assay (substrates BFC and BQ)
CYP3A4, sequence (P08684 whole entry): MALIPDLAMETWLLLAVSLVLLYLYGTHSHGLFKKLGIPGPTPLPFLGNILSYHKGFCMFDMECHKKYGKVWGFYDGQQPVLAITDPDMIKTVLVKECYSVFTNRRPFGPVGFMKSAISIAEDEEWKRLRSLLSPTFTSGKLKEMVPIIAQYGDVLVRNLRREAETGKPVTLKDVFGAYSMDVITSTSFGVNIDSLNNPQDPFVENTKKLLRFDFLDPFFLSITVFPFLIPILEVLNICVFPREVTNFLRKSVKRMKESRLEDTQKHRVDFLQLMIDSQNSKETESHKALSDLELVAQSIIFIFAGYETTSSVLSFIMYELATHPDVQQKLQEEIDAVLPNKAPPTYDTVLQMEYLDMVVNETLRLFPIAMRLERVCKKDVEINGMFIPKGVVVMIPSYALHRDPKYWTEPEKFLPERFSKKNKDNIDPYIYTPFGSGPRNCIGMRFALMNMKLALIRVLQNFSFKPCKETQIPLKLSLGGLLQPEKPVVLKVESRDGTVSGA
Text: as §1, §2, §3

CYP2D6, sequence (P10635 whole entry): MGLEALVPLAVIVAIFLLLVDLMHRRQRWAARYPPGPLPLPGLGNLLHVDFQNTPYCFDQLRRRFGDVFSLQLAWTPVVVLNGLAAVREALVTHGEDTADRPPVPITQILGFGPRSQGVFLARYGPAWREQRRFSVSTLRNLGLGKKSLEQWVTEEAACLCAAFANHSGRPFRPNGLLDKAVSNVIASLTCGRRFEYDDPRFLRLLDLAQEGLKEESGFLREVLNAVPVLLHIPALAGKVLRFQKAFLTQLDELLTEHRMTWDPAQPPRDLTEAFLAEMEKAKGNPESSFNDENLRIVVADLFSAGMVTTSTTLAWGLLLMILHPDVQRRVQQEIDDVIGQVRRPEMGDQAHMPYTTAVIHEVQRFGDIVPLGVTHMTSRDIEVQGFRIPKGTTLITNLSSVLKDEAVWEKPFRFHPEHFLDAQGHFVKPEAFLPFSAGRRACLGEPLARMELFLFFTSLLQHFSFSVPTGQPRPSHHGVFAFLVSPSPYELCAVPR

Cc1ncc(COP(=O)(O)O)c(C=O)c1O [P5P, pyridoxal-5-phosphate]
Pyridoxal 5′-phosphate IC50 (CYP2D6): did not inhibit
Pyridoxal 5′-phosphate IC50 (CYP2E1): did not inhibit
Pyridoxal 5′-phosphate IC50 (CYP2C8): did not inhibit
Pyridoxal 5′-phosphate IC50 (CYP2B6): did not inhibit
IC50 (CYP3A4; read-out: Pyridoxal 5′-phosphate IC50, CYP3A4, substrate BQ, 0.0169 to […] tested): > 37 µM
IC50 (CYP3A4; read-out: Pyridoxal 5′-phosphate IC50 for CYP3A4, CYP3A4, substrate not given): ≥ 37 µM
